What was measured:
[1] = system: human LDL receptor gene promoter coupled to firefly luciferase reporter gene in Hep-G2 cell line; assay: In vitro determination of LDL receptor induction using the luciferase assay; format: cell-based; settings: luminescence, DMSO control=100%
Experimental: 1) In Vitro Determination of LDL Receptor Induction Using the Luciferase Assay
LDL-receptor induction is determined using the luciferase assay as follows. A regulatory DNA fragment (4 kb) of the human LDL receptor gene containing the complete promoter region is coupled to the firefly luciferase reporter gene and stably transfixed into a Hep-G2 cell line. Cells from this line were seeded out on collagen-coated 96-well plates in MEM (minimum essential medium). After 24 hours in culture, the test substances, dissolved in DMSO, were added in final concentrations of 10 nM to 10 μM (final DMSO concentration=2%). The substances were incubated for 12-18 hours overnight (4 wells/conc. in each case), then D-luciferin was added as substrate for the luciferase, and the luminescence was measured. The measured luminescence as a percentage of the control (control=100%) incubated only with DMSO indicates the extent of the relative LDL receptor induction (Table 2).
Further details of the method are described in Current Protocols in Molecular Biology, F. M. Ausubel, R. Brent, R. E. Kingston, D. D. Moore, J. G. Seidman, J. A. Smith, and K. Struhl, eds., J. Wiley and Sons Inc., U.S.A.

[2] = system: hyperlipemic hamsters (plasma lipid level); assay: In vivo reduction in LDL cholesterol / plasma lipid level in hyperlipemic hamsters; parameters: species or system Syrian hamster; settings: vs placebo-treated control
From the text: In Vivo Determination of Reduction in LDL Cholesterol in the Hamster; Cholesterol-lowering Effect of LDL Receptor Inducers in Hyperlipemic Hamsters
In this animal experiment, the effect of LDL receptor inducers after bolus adiminstration to hamsters on a lipid-rich diet was investigated.
The experimental animals used were male Syrian hamsters (Charles River) with an average body weight of 100 to 120 g at the start of adaption. The animals were divided into groups (n=6) on the basis of the body weight. Severe hyperlipidemia was induced by feeding with a diet supplemented with 15% butter and 3% cholesterol. The treatment started after preliminary feeding for 2 weeks. The test substances were administered orally by gavage once a day over a period of 10 days. The plasma lipid level was analyzed after 10 days.

[3] = 20 mg/kg p.o. once a day for ten days
[4] = 40 mg/kg p.o. once a day for ten days

Row | SMILES | LDL receptor induction (% of control) ([1]; 0.15 μM) [%] | LDL receptor induction (% of control) ([1]; 1.5 μM) | LDL receptor induction (% of control) ([1]; 4 μM) | further results
1 | O=S(=O)(NCCc1cccs1)c1cc(S(=O)(=O)NCCc2cccs2)c(NCc2cccc3ccccc23)cc1NCCN1CCCC1 [Example 95] | 198 | 267% | 301% | Relative change in the plasma lipid level: LDL cholesterol [2, 3]: −44%; Relative change in the plasma lipid level: Total cholesterol [2, 3]: −45%; Relative change in the plasma lipid level: Triglycerides [2, 3]: −61%; Relative change in the plasma lipid level: LDL cholesterol [2, 4]: −49%; Relative change in the plasma lipid level: Total cholesterol [2, 4]: −50%; Relative change in the plasma lipid level: Triglycerides [2, 4]: −73%
2 | O=S(=O)(c1cc(S(=O)(=O)N2CCCCC2)c(NCc2cccc(Cl)c2)cc1NCCN1CCCC1)N1CCCCC1 [Example 84] |  | 199% | 223% | 
3 | CN1CCN(c2cc(NCc3ccccn3)c(S(=O)(=O)N(C)c3ccccc3)cc2S(=O)(=O)N(C)c2ccccc2)CC1 [Example 10] | 144 |  | 270% | 
4 | CN1CCN(c2cc(N3CC=C(c4ccccc4)CC3)c(S(=O)(=O)N(C)c3ccccc3)cc2S(=O)(=O)N(C)c2ccccc2)CC1 [Example 108] |  | 191% | 249% | 
5 | CN(c1ccccc1)S(=O)(=O)c1cc(S(=O)(=O)N(C)c2ccccc2)c(N2CCNCC2)cc1NCc1ccccn1 [Example 46] | 152 | 223% |  | 
6 | CC(C)CNS(=O)(=O)c1cc(S(=O)(=O)NCC(C)C)c(N2CCN(C)CC2)cc1NCc1ccccc1 [Example 12] |  | 244% (1.5 μM) |  | 
7 | CN1CCN(c2cc(N3CCN(C)CC3)c(S(=O)(=O)N3CCCCC3)cc2S(=O)(=O)N2CCCCC2)CC1 [Example 8] |  |  | 190% (4 μM) | 
8 | CCN(CCN(C)C)c1cc(N2CCN(c3ccccc3)CC2)c(S(=O)(=O)NCCc2cccs2)cc1S(=O)(=O)NCCc1cccs1 [Example 94] |  | 194% | 321% | 
9 | CN(C)CCNc1cc(NCc2cccc(Cl)c2)c(S(=O)(=O)N2CCCCC2)cc1S(=O)(=O)N1CCCCC1 [Example 99] |  | 247% | 322% | 
10 | CCN(CCN(C)C)c1cc(NCCc2ccc(OC)c(OC)c2)c(S(=O)(=O)NCCc2cccs2)cc1S(=O)(=O)NCCc1cccs1 [Example 92] |  | 213% | 233% | 
11 | CN1CCN(c2cc(N3CCN(C)CC3)c(S(=O)(=O)N(C)Cc3ccccc3)cc2S(=O)(=O)N(C)Cc2ccccc2)CC1 [Example 3] | 184 | 414% |  | 
12 | CCN(CCN(C)C)c1cc(N2CCC(c3ccccc3)CC2)c(S(=O)(=O)NCCc2cccs2)cc1S(=O)(=O)NCCc1cccs1 [Example 93] | 213 | 293% | 337% | 
13 | CN1CCN(c2cc(NCc3ccccc3)c(S(=O)(=O)N(C)c3ccccc3)cc2S(=O)(=O)N(C)c2ccccc2)CC1 [Example 9] | 244 | 402% |  | 
14 | CN1CCN(c2cc(NCCCc3ccccc3)c(S(=O)(=O)N(C)c3ccccc3)cc2S(=O)(=O)N(C)c2ccccc2)CC1 [Example 25] | 168 | 189% |  | 
15 | CN1CCN(c2cc(NCCCc3ccccc3)c(S(=O)(=O)N3CCOCC3)cc2S(=O)(=O)N2CCOCC2)CC1 [Example 15] | 137 | 243% |  | 
16 | COCCCNS(=O)(=O)c1cc(S(=O)(=O)NCCCOC)c(N2CCN(c3ccccc3)CC2)cc1NCCN1CCCC1 [Example 102] |  | 239% | 298% | 
17 | CCN(CCN(C)C)c1cc(NCCCCc2ccccc2)c(S(=O)(=O)N2CCCCC2)cc1S(=O)(=O)N1CCCCC1 [Example 70] | 194 |  | 238% | 
18 | CCN(CCN(C)C)c1cc(NC2CCN(Cc3ccccc3)CC2)c(S(=O)(=O)N2CCCCC2)cc1S(=O)(=O)N1CCCCC1 [Example 65] | 177 | 292% | 314% | 
19 | CN(C)CCNc1cc(NCc2ccc(Cl)c(Cl)c2)c(S(=O)(=O)N2CCCCC2)cc1S(=O)(=O)N1CCCCC1 [Example 98] |  | 249% | 285% | Relative change in the plasma lipid level: LDL cholesterol [2, 3]: −26%; Relative change in the plasma lipid level: Total cholesterol [2, 3]: −23%; Relative change in the plasma lipid level: Triglycerides [2, 3]: −27%; Relative change in the plasma lipid level: LDL cholesterol [2, 4]: −44%; Relative change in the plasma lipid level: Total cholesterol [2, 4]: −46%; Relative change in the plasma lipid level: Triglycerides [2, 4]: −68%
20 | CN1CCN(c2cc(NCCCc3ccccc3)c(S(=O)(=O)N3CCCC3)cc2S(=O)(=O)N2CCCC2)CC1 [Example 26] | 146 | 206% |  | 
21 | CCN(CCN(C)C)S(=O)(=O)c1cc(S(=O)(=O)N(CC)CCN(C)C)c(N2CCN(C)CC2)cc1N(C)Cc1ccccc1 [Example 61] |  |  | 190% (4 μM) | 
22 | CCN(CC)S(=O)(=O)c1cc(S(=O)(=O)N(CC)CC)c(N2CCN(C)CC2)cc1NCc1ccccc1 [Example 16] |  | 214% (1.5 μM) |  | 
23 | CN1CCN(c2cc(NCc3ccccc3)c(S(=O)(=O)NC3CCCCC3)cc2S(=O)(=O)NC2CCCCC2)CC1 [Example 2] |  | 155% | 227% | 
24 | CN1CCN(c2cc(NCc3ccccc3)c(S(=O)(=O)N3CCCC3)cc2S(=O)(=O)N2CCCC2)CC1 [Example 5] |  |  | 240% (4 μM) | 
25 | CCN(CCN(C)C)c1cc(N2CCN(c3ccccc3)CC2)c(S(=O)(=O)NCCCOC)cc1S(=O)(=O)NCCCOC [Example 96] | 138 | 278% | 326% | 
26 | CCN(CCN(C)C)c1cc(N2CCN(c3ccccc3)CC2)c(S(=O)(=O)N2CCCCC2)cc1S(=O)(=O)N1CCCCC1 [Example 64, N-Ethyl-N′,N′-dimethyl-N-[5-(4-phenyl-piperazin-1-yl)-2,4-bis-(piperidine-1-sulfonyl)-phenyl]ethane-1,2-diamine] |  |  |  | melting point: 116 to 118 °C
